A value given as a limit tells only on which side of the number the result lay.

Data set [1] is described as follows: Maximum tolerated dose of BNC105P in patients. The data set is classed as in vivo, Human. The settings on record: intravenous infusion over 10 minutes, days 1 and 8 of 21 day cycle, with 10 mg oral everolimus daily. The procedure: (§1) Patients in the BNC105P in combination with everolimus study group (the “combination arm”) were administered 10 mg oral everolimus daily. On days 1 and 8 of the 21 day cycle period, the patients were administered 16 mg/m^2 BNC105P, which had been determined to be the maximum tolerated dose, by intravenous infusion over a 10 minute period (FIG. 1). Treatment was continued until disease progressed, intolerable toxicity became apparent, or until consent was withdrawn. A control group of patients were administered with everolimus alone.

In data set [2] the test system is Sex Hormone-Binding Globulin (SHBG). Description: Disruptor-1 trial: plasma SHBG level post versus pre BNC105P infusion (Human CustomMAP, Luminex). The data set is classed as in vivo.
Description: (§2) The objective of the study was to determine the response rate of patients administered BNC105P (vascular disrupting agent) in combination with everolimus (mTOR inhibitor) in patients who had progressed from prior tyrosine kinase inhibitor therapy. In addition, the present inventors determined the improvement in 6-months progression free survival (PFS) with the addition of BNC105P to everolimus (Afinitor). A control group of patients received everolimus alone.
as §1
(§3) Human EDTA plasma samples were taken from patients to quantitatively measure the concentration of 56 analytes from the Human CustomMAP at Myriad RBM (MRBM). […]
(§4) The biomarker levels at each time and the change in biomarker levels were examined. The mean change from pre- to post-infusion was calculated as the mean of C1D1 pre-infusion minus C1D1 post-infusion. […]

Another data set deals with Myoglobin (MB). Description: Disruptor-1 trial: plasma Myoglobin level post versus pre BNC105P infusion (Human CustomMAP, Luminex). The data set is classed as in vivo.
Description: as §2, §1, §3, §4

Data set [3] deals with Serum Amyloid P-Component (SAP). The data set is described as follows: Disruptor-1 trial: plasma SAP level post versus pre BNC105P infusion (Human CustomMAP, Luminex). The class given is in vivo.
Description: as §2, §1, §3, §4

In a further data set the test system is Stem Cell Factor (SCF). The data set is described as follows: Disruptor-1 trial: plasma SCF level post versus pre BNC105P infusion (Human CustomMAP, Luminex). The data set is classed as in vivo.
Description: as §2, §1, §3, §4

Data set [4] has as its system Matrix Metalloproteinase-9 (MMP-9). Description: Disruptor-1 trial: plasma MMP-9 level post versus pre BNC105P infusion (Human CustomMAP, Luminex). The data set is classed as in vivo.
Description: as §2, §1, §3, §4

In data set [5] the test system is tumour endothelial cells (activated) and normal endothelial cells (quiescent). Description: Potency against activated versus quiescent endothelial cells. The data set is classed as cell-based.
A further data set concerns tubulin. Description: Tubulin polymerisation inhibition. The data set is classed as biochemical.
[6] abbreviates: plasma, renal cell carcinoma patients, 16 mg/m^2 BNC105P i.v. infusion plus 10 mg oral everolimus daily, post versus pre infusion.
[7] abbreviates: post/baseline plasma ratio after BNC105P, patients split at the median.

`COc1cc(C(=O)c2c(C)oc3c(OP(=O)([O-])[O-])c(OC)ccc23)cc(OC)c1OC.[Na+].[Na+]` [BNC105P, disodium [6-methoxy-2-methyl-3-(3,4,5-trimethoxybenzoyl)-1-benzofuran-7-yl]phosphate]: the maximum tolerated dose in data set [1] is on record as 16 mg/m^2. Further, in data set [2] (setting [6]), the “Median Post/Baseline Ratio, SHBG” value is 0.92. Moreover, the “Biomarker change Ratio Range associated with better PFS, SHBG” value in data set [2] (setting [7]) is recorded as no more than 0.92. For the same compound, in the data set on Myoglobin (MB) (setting [6]), the “Median Post/Baseline Ratio, Myoglobin” value worked out at 0.935. Also, the “Biomarker change Ratio Range associated with better PFS, Myoglobin” value in the data set with Myoglobin (MB) (setting [7]) is on record as no more than 0.935. Moreover, the “Median Post/Baseline Ratio, SAP” value in data set [3] (setting [6]) was 0.95. Besides, in data set [3] (setting [7]), the “Biomarker change Ratio Range associated with better PFS, SAP” value was no more than 0.95. Besides, the “Median Post/Baseline Ratio, SCF” value in the data set with Stem Cell Factor (SCF) (setting [6]) was 1.0. Besides, in the data set on Stem Cell Factor (SCF) (setting [7]), the “Biomarker change Ratio Range associated with better PFS, SCF” value is greater than 1. Moreover, in data set [4] (setting [6]), the “Median Post/Baseline Ratio, MMP-9” value was 1.060. Further, in data set [4] (setting [7]), the “Biomarker change Ratio Range associated with better PFS, MMP-9” value is reported as greater than 1.060.
Regarding `COc1ccc(/C=C\c2cc(OC)c(OC)c(OC)c2)cc1O` [Combretastatin A4, reference compound], the “selectivity between activated (tumour) and quiescent (normal) endothelial cells (in words)” value in data set [5] was “equally potent against quiescent and activated endothelial cells”.
Turning to `COc1cc(C(=O)c2c(C)oc3c(O)c(OC)ccc23)cc(OC)c1OC` [III, 2-methyl-7-hydroxy-3-(3,4,5-trimethoxybenzoyl)-6-methoxybenzofuran], the “tubulin polymerisation inhibition (in words)” value in the data set on tubulin was “potent tubulin polymerisation inhibitors”. Also, the “selectivity between activated (tumour) and quiescent (normal) endothelial cells (in words)” value in data set [5] is listed as “show selectivity towards tumor endothelial cells (activated) over normal endothelial cells (quiescent)”.

(Values after patent US10564162B2, “Predictive biomarkers” (BIONOMICS LIMITED, priority 2014, dated 2020).)
